Values quoted from earlier work as cited in US7645795B2, “Method for treating amyotrophic lateral sclerosis” (BodyBio, Inc, priority 2004, dated 2010).

Test system: ALS patients

Nc1nc2ccc(OC(F)(F)F)cc2s1 [riluzole]
Extension of lifespan of ALS patients: approximately 3 months | Hepatic effect: evokes hepatic stress upon elevation of liver enzymes
